Assay results as given in ChEMBL document CHEMBL2157954.
The source made the active and inactive calls. The rule behind the calls is not given here.

What was measured:
[1] = organism: Rattus norvegicus; assay: […] activity in rat with several spinal cord injury assessed as increase in locomotory function; format: functional, organism-based
[2] = organism: Rattus norvegicus; assay: […] activity in rat with several spinal cord injury assessed as increase in voiding function; format: functional, organism-based
[3] = test system: Lymphocyte; assay: Immunosuppressive activity against autoimmune lymphocytes assessed as inhibition of cell expansion; format: functional, cell-based
[4] = test system: Rattus norvegicus; assay: […] activity in rat with several spinal cord injury assessed as increase in locomotory function at 20 mg/kg/day for 7 days; format: functional, organism-based
[5] = test system: Rattus norvegicus; assay: […] activity in rat with several spinal cord injury assessed as increase in voiding function at 20 mg/kg/day for 7 days; format: functional, organism-based

Compound | Activity [1] | Activity [2] | inhibition [3] | Activity [4] | Activity [5]
Cc1cc(NC(=O)/C(C#N)=C(\O)C2CC2)ccc1C(F)(F)F | Active | Active |  |  | 
Cc1oncc1C(=O)Nc1ccc(C(F)(F)F)cc1 |  |  | Active | Active | Active
C/C(O)=C(\C#N)C(=O)Nc1ccc(C(F)(F)F)cc1 | Active | Active |  |  | 
